Tests used:
[1] = test system: colon cancer cell line HCT116; assay: Apoptosis of colon cancer cell line HCT116; assay type: cell-based; settings: 12.5 μM for 72 h
[2] = test system: Ras/Raf interaction; assay: In vitro competition of Ras/Raf interaction (immunoprecipitation from cell lysates, blot); assay type: binding, Human; settings: 1.5 mM of peptides, 30 min, room temperature; FIGS. 2A, 2B
Protocol: FIGS. 2A and 2B show in vitro competition of Ras/Raf interaction. Cells were lysed for 20 min at 4° C. in lysis buffer (50 mM Tris (pH 8), 1% Nonidet P-40, 137 mM NaCl, 1 mM MgCl2, 1 mM CaCl2, 10% glycerol, and protease inhibitor mixture). Lysates (800 μg of protein) were immunoprecipitated with the appropriate Ab overnight at 4° C., and protein A-Sepharose was added for 1 h at 4° C. After washing with 1×TBST (20 mM Tris-HCl (pH 7.5), 150 mM NaCl, 0.05% Tween 20), the Ras/Raf interaction was competed using peptides Mut3DPT-Ras (A) or Mut3DPT-Raf+Mut3DPT-Raf2 (B) at a concentration of 1.5 mM for 30 min at room temperature. After a washing, immunoprecipitates were transferred to nitrocellulose and blotted with the corresponding Ab.
The Ras/Raf interaction was competed using peptides corresponding to the binding site of Ras to Raf and vice versa. Lysates from MDA-MB321 or BC52 cell lines were immunoprecipitated with anti-Ras or anti-Raf Ab, and protein A-Sepharose was added. The Ras/Raf interaction was competed with 1.5 mM of peptides (30 min, room temperature). After washing steps, immunoprecipitates were transferred to nitrocellulose and blotted with the corresponding Ab. Proteins were detected using the ECL system.

[3] = test system: K-Ras mutated cell line SW626; assay: Apoptosis by Annexin V-FITC staining, SW626; assay type: cell-based, Human; settings: SW626, 100 μM for 24 h; FIG. 3C
Protocol: FIGS. 3A to 3D show effect of peptides on apoptosis. A) MDA-MB231 cell line (mutated K-Ras) was cultured in the presence of the identified peptides at a concentration of 100 μM for 24 h. Apoptosis was detected by Annexin V-FITC staining and analyzed by flow cytometry. B) MDA-MB231 cell line was cultured as above, but to a concentration of 10 or 25 μM peptides. Apoptosis was estimated by annexin V-FITC staining. C) The K-Ras mutated cell line SW626 was cultured and analyzed as in A. D) The wild type K-RAs cell line BC 227 was cultured and analyzed as in A.
Apoptotic cells were detected using Annexin-V (-FITC from BD biosciences) as described by the manufacturer. Briefly, the cells were washed in 1× binding buffer, centrifugated and then resuspended in 200 μl of 1× binding buffer containing Annexin V-FITC (0.1 μg/ml) and PI (0.5 μg/ml). After incubation at room temperature in the dark for 10 min, cells were analyzed by flow cytometry. Data acquired by FACSCalibur (BD biosciences) were analyzed with Cellquest Pro software.

[4] = test system: primary tumor cells of chronic lymphocytic leukemia (CLL); assay: Apoptosis of primary tumor cells of chronic lymphocytic leukemia; assay type: cell-based

Row | Sequence | apoptosis of HCT116 [1] | competition of the Ras/Raf interaction in vitro [2] | apoptotic effect [3] | effect on CLL B and non-B cells [4]
1 | VKKKKIKAEIKIHEHKGKKARLDWNTDAAS (chimeric peptide) [Mut3DPT-Raf2] | cause apoptosis |  |  | 
2 | VKKKKIKAEIKIKMSKDGKKKKKKSKTKCVIM (chimeric peptide) [Mut3DPT-Ras] |  | able to compete in vitro the interaction Ras/Raf | lower level of apoptosis | marked effect

Reference: patent US20170015718A1, “PRO-APOPTOTIC RAS AND RAF PEPTIDES” (UNIVERSITE PIERRE ET MARIE CURIE (PARIS 6), priority 2013, published 2017)
